# What was measured:
# [1] = system: breast cancer cell line BT474; conditions: mouse, in vivo
# Protocol: (§1) The change of tumor volume and animal weight were measured for calculation of the efficacy (tumor-inhibitory efficacy) of the antibody-drug conjugates in the tumor-bearing mice.
# (§2) After gently shaking, the mother solutions were sub-packed and stored at −80° C. Treatment solutions for use were obtained by dilution with normal saline, and a normal saline at the same concentration was used as solvent control.
# (§3) The tumor-bearing mice (models obtained in 1.2) with tumor volume of 100-200 mm^3 were randomly assigned (the number of samples in each group was determined according to sample quantity), 7 mice per group. The dosage was 10 ml/kg. The route of administration was single intravenous injection in caudal vein. After administration, the tumor diameter was measured with vernier caliper twice a week for an observation period of 8 weeks, and the tumor volume was calculated according to the following equation: V=0.5 a^2×b, wherein a and b represent the […] of the tumor, respectively. Animal deaths were observed and recorded daily.
# (§4) The tumor growth inhibition TGI (%) was calculated with the following equation for evaluating the antitumor efficacy of the antibody-drug conjugates: […]
# [2] = system: human gastric cancer cell line NCI-N87; conditions: mouse, in vivo
# Protocol: as §1, §2, §3, §4
# [3] = system: ovarian cancer cell line SK-OV-3; conditions: mouse, in vivo
# Protocol: as §1, §2, §3, §4
# [4] = system: BT-474 (HER2+++); conditions: 1 h incubation, FACS
# Protocol: (§5) The fluorescent intensity of cell surface binding was measured with FACS to determine the affinity of the drugs to the above cells.
# [5] = system: JIMT-1 (HER2+); conditions: 1 h incubation, FACS
# Protocol: as §5
# [6] = system: MDA-MB-468 (HER2−); conditions: 1 h incubation, FACS
# Protocol: as §5
# [7] = system: JIMT-1 cells; conditions: 3 mg/kg, single injection via tail vein, 31st day after injection
# Protocol: (§6) NOD/SCID mice were subcutaneously inoculated with JIMT-1 cells to establish a subcutaneous xenograft model of human-derived breast cancer. […] Each group has 8 mice, and the administration was a single injection via tail vein. Tumor volume was measured on the 31st day after the single injection (i.e., 43rd day after inoculation of JIMT-1 cells), and TGI was calculated. The efficacy was evaluated based on TGI, and the tolerance was evaluated based on body weight changes and death of the mice. TGI was calculated as described above in (1).
# [8] = system: Calu-3 cells; conditions: 1 mg/kg, single injection via tail vein, 31st day after injection
# Protocol: as §6, with “BALB/c Nude” for “NOD/SCID”, “Calu-3” for “JIMT-1”, “lung adenocarcinoma.” for “breast cancer.”, “(36th” for “(i.e., 43rd”
# [9] = system: BR0438 tumor mass; conditions: 15 mg/kg, single injection via tail vein, 21st day after injection
# Protocol: as §6, with “BR0438 tumor mass” for “JIMT-1 cells”, “cancer. The administration was conducted when the average tumor volume reached 173 mm^3.” for “cancer.”, “21st” for “31st”, “injection,” for “injection (i.e., 43rd day after inoculation of JIMT-1 cells),”
# [10] = system: GA0006 tumor mass; conditions: 15 mg/kg, single injection via tail vein, 21st day after injection
# Protocol: as §6, with “BALB/c nude” for “NOD/SCID”, “GA0006 tumor mass” for “JIMT-1 cells”, “gastric” for “breast”, “cancer. The administration was conducted when the average tumor volume reached 141 mm^3.” for “cancer.”, “21st” for “31st”, “injection,” for “injection (i.e., 43rd day after inoculation of JIMT-1 cells),”
# [11] = system: BT-474 cells; conditions: 3 mg/kg, single injection via tail vein, 31st day after injection
# Protocol: NOD/SCID mice were orthotopically inoculated with BT-474 cells to establish an orthotopic xenograft model of human-derived breast cancer. […] Each group has 10 mice, and the administration was a single injection via tail vein. Tumor volume was measured on the 31st day after the single injection (i.e., 39th day after inoculation of BT-474 cells), and TGI was calculated. The efficacy was evaluated based on TGI.
# wherein VTe: Average tumor volume of treatment group at the end of observation • VTs: Average tumor volume of treatment group at the administration • VCe: Average tumor volume of control group at the end of observation • VCs: Average tumor volume of control group at the administration
substance,measurement,setting,value
T-DM1,TGI (%),[1],54.80%
same,final tumor volume (mm^3),[2],774.76 mm^3
same,TGI (%),[3],−11.04%
same,affinity (EC50),[4],2.419 µg/mL
same,affinity (EC50),[5],0.5105 µg/mL
same,affinity (EC50) (ng/ml),[6],No binding
same,TGI (%),[7],28%
same,TGI (%),[8],64%
same,TGI (%),[9],3.65%
same,TGI (%),[10],86.97%
same,TGI (%),[11],43%
